According to patent publication US10556844B2, “Pyrazole compounds as nitrification inhibitors” (BASF SE, priority 2015, dated 2020):

Test system: nitrification
Experiment: Inhibition of nitrification in field soil (48 well plate, ammonium sulfate, colour reaction read at 540 nm)
Conditions: for IN (best inhibition value obtained for a compound): soil, room temperature, up to 72 hrs
Method: The compounds of the invention have been tested as follows in terms of the inhibition of nitrification:
Soil was sampled fresh from a field (e.g. Limburgerhof), dried and sieved through a 500 μm sieve. Approximately 200 mg of soil were placed into each well of a 48 well plate. Compounds, or DMSO alone, were added at a concentration of 10 ppm, dissolved in 1% DMSO. 6 μmol ammonium sulfate was added per well as well as 4.8 mg NaClO3.
Subsequently, the samples were incubated at room temperature for up to 72 hrs. After the incubation period 64 mg KCl were added and mixed. 25 μl of the supernatant were placed into a fresh plate and 260 μl of a color reaction solution (from Merck Nr 1.11799.0100) were added.
Measurements were taken with a Tecan plate Reader at 540 nm wavelength.
Inhibition is calculated as x=% activity compared to control, and converted to 100-x to give the value of inhibition, rather than activity.

| Compound | IN (best inhibition value obtained for a compound) (dose of 10 ppm) | other results |
| --- | --- | --- |
| C#CCn1nc(O)c2ccccc21 [Compound A-14] | 59% | – |
| C#Cc1ccccc1 [Phenylacetylene, phenylacetylene, reference compound] | – | IN (inhibition value) (reference compound, same conditions, dose of 10 ppm): 7% |
| C#CCn1ncc(C(=O)O)c1C [Compound A-42] | 17% | – |
| C=C=Cn1nccc1C [Compound B-6] | >10% | – |
| C#CCn1cccn1 [Compound A-19] | 45% | – |
| C#CCn1nc(C)c(OC(C)=O)c1C [Compound A-44] | – | IN (best inhibition value obtained for a compound) (dose of 5±1 ppm): 59% |
| C=C=Cn1ccc(C)n1 [Compound B-5] | >10% | – |
| C#CCn1ncc2c1C(=O)c1ccccc1C2=O [Compound A-33] | 44% | – |
